# In patent US9989519B1, “Method for determining in vitro bioequivalence of a sucralfate suspension sample to a sucralfate suspension reference listed drug (RLD)” (Clayton Pharmaceuticals, LLC, priority 2017, dated 2018):
# Tested on: Caco-2 cell monolayers
# Test: Indomethacin-induced damage (loss of TEER) in Caco-2 cell monolayers, assay development
# Format: cell-based, human
# Protocol: Considering the fact that the Caco-2 cell model mimics the human intestinal mucosa, and that the intraluminal pH of the small intestine ranges from approximately 6.0 to 7.4, evaluation of the damage induced by indomethacin (the chosen ulcerogenic agent, the use of which was previously reported) was performed at these two pH conditions. The choice of 0.75 mM indomethacin was based on earlier observations reported for a similar evaluation using Caco-2 cells for this initial assay development stage. For each pH condition, the damage was measured by comparing the TEER values of indomethacin-treated cell monolayers with those of control cell monolayers before and after the assay, and the % of TEER remaining (compared to the control treatment) was calculated. The results are illustrated below in FIG. 7. […] In contrast, for the assay with the pH condition of 6.0, approximately 50% of the TEER was lost by two hours and nearly 80% of the TEER was lost by the end of the assay duration of 5 hours. […] Therefore, pH 6.0 was selected as the optimal pH condition on the apical (modeling the luminal) side for this assay. It was also noted that the majority of the damage was caused between 2 and 3 hours of duration; any additional damage after three hours was marginal. For this reason, further evaluations were performed at a truncated duration of 2 to 3 hours. Considering the fact that significant damage to the cells was induced post two hours in the assessment above and the fact that a shorter assay duration would be desirable for the purposes of experimental logistics, different concentrations (1, 1.5 and 2 mM) of indomethacin were tested to understand the extent of damage caused to the cell monolayers as a function of indomethacin concentration using apical pH of 6.0 and a 3 hour duration. […] Therefore, a concentration of 2 mM was selected as the optimal concentration for this assay.
smiles,measurement,setting,value
COc1ccc2c(c1)c(CC(=O)O)c(C)n2C(=O)c1ccc(Cl)cc1 [indomethacin],damage to the cell monolayers as a function of indomethacin concentration,"2 mM (1, 1.5 and 2 mM tested), apical pH 6.0, 3 hour duration",Maximum damage
same,TEER lost,"indomethacin 0.75 mM, apical pH 6.0, 5 hours",~80%
same,TEER lost,"indomethacin 0.75 mM, apical pH 6.0, two hours",approximately 50%
same,loss of TEER,"indomethacin 0.75 mM, pH 7.4, 5 hours",a significant loss of TEER was not observed
